Data on eleven molecules can be found in patent US10004701B2, “Methods and compositions for treating infection” (UNIVERSITY OF ROCHESTER, priority 2012, dated 2018).

Holding throughout (experiment): AK assay 384-well format, Prestwick library screening
One experiment relates to E. cloacae. The class given is cell-based, Enterobacter cloacae. The note with it: 50 μM final drug concentration; for fold induction at 50 µM: Enterobacter cloacae, 3 h; for fold induction at 50 µM / AK-based Prestwick Library Screening Results: E. cloacae (increase in extracellular AK activity): cutoff for positive-scoring molecules 3-fold increase.
The next experiment deals with E. coli. The class given is cell-based, Escherichia coli. The note with it: 50 μM final drug concentration; for fold induction at 50 µM: Escherichia coli, 3 h; for fold induction at 50 µM / AK-based Prestwick Library Screening Results: E. coli (increase in extracellular AK activity): cutoff for positive-scoring molecules 3-fold increase.
The subject of experiment [1] is A. baumannii strain 98-37-09. The class given is cell-based, Acinetobacter baumannii. The note with it: 50 μM final drug concentration; for fold induction at 50 µM: Acinetobacter baumannii, 983709, 3 h; for fold induction at 50 µM / AK-based Prestwick Library Screening Results: A. baumannii (increase in extracellular AK activity): cutoff for positive-scoring molecules 3-fold increase.

A further experiment has as its system E. faecium. The class given is cell-based, Enterococcus faecium. The note with it: 50 μM final drug concentration; for fold induction at 50 µM: Enterococcus faecium, 3 h; for fold induction at 50 µM / AK-based Prestwick Library Screening Results: E. faecium (increase in extracellular AK activity): cutoff for positive-scoring molecules 3-fold increase.
Experiment [2] concerns S. aureus strain USA300-0114. Format: cell-based, Staphylococcus aureus. The following applies: 50 μM final drug concentration; for fold induction at 50 µM: Staphylococcus aureus, USA300, 3 h; for fold induction at 50 µM / AK-based Prestwick Library Screening Results: S. aureus (increase in extracellular AK activity): cutoff for positive-scoring molecules 3-fold increase.
The subject of the next experiment is K. pneumoniae. The class given is cell-based, Klebsiella pneumoniae. The following applies: 50 μM final drug concentration; for fold induction at 50 µM: Klebsiella pneumoniae, 3 h; for fold induction at 50 µM / AK-based Prestwick Library Screening Results: K. pneumoniae (increase in extracellular AK activity): cutoff for positive-scoring molecules 3-fold increase.

A further experiment deals with P. aeruginosa. The class given is cell-based, Pseudomonas aeruginosa. The following applies: 50 μM final drug concentration; for fold induction at 50 µM: Pseudomonas aeruginosa, 3 h; for fold induction at 50 µM / AK-based Prestwick Library Screening Results: P. aeruginosa (increase in extracellular AK activity): cutoff for positive-scoring molecules 3-fold increase.
Where [3] appears, read: read-out: AK-based Prestwick Library Screening Results, E. cloacae (fold increase in extracellular AK activity).
[4] abbreviates: read-out: AK-based Prestwick Library Screening Results, E. coli (fold increase in extracellular AK activity).
Where [5] appears, read: read-out: AK-based Prestwick Library Screening Results, A. baumannii (fold increase in extracellular AK activity).
Setting [6] is: read-out: AK-based Prestwick Library Screening Results, E. faecium (fold increase in extracellular AK activity).
Setting [7] is: read-out: AK-based Prestwick Library Screening Results, S. aureus (fold increase in extracellular AK activity).
Setting [8] is: read-out: AK-based Prestwick Library Screening Results, K. pneumoniae (fold increase in extracellular AK activity).
[9] abbreviates: read-out: AK-based Prestwick Library Screening Results, P. aeruginosa (fold increase in extracellular AK activity).
Setting [10] is: planktonic E. cloacae, 384-well.
Where [11] appears, read: planktonic A. baumannii, 384-well.
The mark [12] stands for this setting: planktonic E. faecium, 384-well.
[13] abbreviates: planktonic K. pneumoniae, 384-well.
Where [14] appears, read: planktonic P. aeruginosa, 384-well.
The mark [15] stands for this setting: 384-well format, read-out: AK-based Prestwick Library Screening Results, E. cloacae (increase in extracellular AK activity).
The mark [16] stands for this setting: 384-well format, read-out: AK-based Prestwick Library Screening Results, E. coli (increase in extracellular AK activity).
[17] abbreviates: 384-well format, read-out: AK-based Prestwick Library Screening Results, A. baumannii (increase in extracellular AK activity).
Setting [18] is: 384-well format, read-out: AK-based Prestwick Library Screening Results, E. faecium (increase in extracellular AK activity).
[19] abbreviates: 384-well format, read-out: AK-based Prestwick Library Screening Results, S. aureus (increase in extracellular AK activity).
Setting [20] is: 384-well format, read-out: AK-based Prestwick Library Screening Results, K. pneumoniae (increase in extracellular AK activity).
The mark [21] stands for this setting: 384-well format, read-out: AK-based Prestwick Library Screening Results, P. aeruginosa (increase in extracellular AK activity).

Structures can show the parent of a compound that is named as a salt. Where two headings read alike, the source gives them in different places.

For `O=C(CCCCC(=O)Nc1c(I)cc(I)c(C(=O)O)c1I)Nc1c(I)cc(I)c(C(=O)O)c1I` [Iodipamide], the fold induction at 50 µM turned out to be 1.6 with E. cloacae (setting [3]); 1.2 in the experiment on E. coli (setting [4]); 1.2 in experiment [1] (setting [5]); 1 in the experiment on E. faecium (setting [6]); 1 in experiment [2] (setting [7]); 1 in the experiment with K. pneumoniae (setting [8]). In addition, in the experiment with P. aeruginosa (setting [9]), the fold induction at 50 µM is 1.1.
Regarding `NC(=O)OCC(O)COc1ccc(Cl)cc1` (centres unmarked) [Chlorphensin carbamate], in the experiment with E. cloacae (setting [10]), the “AK-based Prestwick Library Screening Results: E. cloacae (increase in extracellular AK activity)” value was 1.4. Also, the “AK-based Prestwick Library Screening Results: E. coli (increase in extracellular AK activity)” value in the experiment on E. coli (planktonic E. coli, 384-well) was found to be 1.2. For the same molecule, in experiment [1] (setting [11]), the “AK-based Prestwick Library Screening Results: A. baumannii (increase in extracellular AK activity)” value is 1.3. Also, the “AK-based Prestwick Library Screening Results: E. faecium (increase in extracellular AK activity)” value in the experiment with E. faecium (setting [12]) is given as 0.9. For the same molecule, the “AK-based Prestwick Library Screening Results: S. aureus (increase in extracellular AK activity)” value in experiment [2] (planktonic S. aureus, 384-well) is reported as 1.0. The “AK-based Prestwick Library Screening Results: K. pneumoniae (increase in extracellular AK activity)” value in the experiment with K. pneumoniae (setting [13]) turned out to be 1.1. Besides, in the experiment on P. aeruginosa (setting [14]), the “AK-based Prestwick Library Screening Results: P. aeruginosa (increase in extracellular AK activity)” value came to 1.1.
With `C[C@]12C=CC(=O)C=C1CC[C@H]1[C@@H]3C[C@@H](O)[C@](O)(C(=O)CO)[C@@]3(C)C[C@H](O)[C@@]12F` [Triamcinolone], the fold induction at 50 µM in the experiment with E. cloacae (setting [15]) came to 1.2; in the experiment on E. coli (setting [16]) it was 1; in experiment [1] (setting [17]), 0.9; with E. faecium (setting [18]), 1; in experiment [2] (setting [19]), 0.8; with K. pneumoniae (setting [20]) it was 0.7. Further, the fold induction at 50 µM in the experiment on P. aeruginosa (setting [21]) is 0.7.
Consider `COc1ccc2c(c1OC)CN1CCc3cc4c(cc3C1C2)OCO4` (centres unmarked) [(d,l)-Tetrahydroberberine], for which the “AK-based Prestwick Library Screening Results, E. cloacae (fold increase in extracellular AK activity)” value with E. cloacae (planktonic, […]) came to 1.3. In addition, in the experiment with E. coli (planktonic, […]), the “AK-based Prestwick Library Screening Results, E. coli (fold increase in extracellular AK activity)” value is listed as 0.8. Also, the “AK-based Prestwick Library Screening Results, A. baumannii (fold increase in extracellular AK activity)” value in experiment [1] (planktonic, […]) is reported as 0.9. Also, the “AK-based Prestwick Library Screening Results, E. faecium (fold increase in extracellular AK activity)” value with E. faecium (planktonic, […]) is recorded as 0.9. Further, the “AK-based Prestwick Library Screening Results, S. aureus (fold increase in extracellular AK activity)” value in experiment [2] (planktonic, […]) stood at 0.7. Besides, the “AK-based Prestwick Library Screening Results, K. pneumoniae (fold increase in extracellular AK activity)” value with K. pneumoniae (planktonic, […]) came to 0.7. The “AK-based Prestwick Library Screening Results, P. aeruginosa (fold increase in extracellular AK activity)” value in the experiment on P. aeruginosa (planktonic, […]) is given as 0.8.
As for (S)-propranolol hydrochloride, the “AK-based Prestwick library screening result, E. cloacae (fold increase in extracellular AK activity)” value with E. cloacae (planktonic E. cloacae, positive cutoff 3-fold increase) came out at 1.6. The “AK-based Prestwick library screening result, E. coli (fold increase in extracellular AK activity)” value in the experiment on E. coli (planktonic E. coli, positive cutoff 3-fold increase) is 1.2. For the same molecule, in experiment [1] (planktonic A. baumannii, positive cutoff 3-fold increase), the “AK-based Prestwick library screening result, A. baumannii (fold increase in extracellular AK activity)” value is 1.0. Also, the “AK-based Prestwick library screening result, E. faecium (fold increase in extracellular AK activity)” value in the experiment on E. faecium (planktonic E. faecium, positive cutoff 3-fold increase) amounted to 1.1. In experiment [2] (planktonic S. aureus, positive cutoff 3-fold increase), the “AK-based Prestwick library screening result, S. aureus (fold increase in extracellular AK activity)” value came out at 1.0. Besides, the “AK-based Prestwick library screening result, K. pneumoniae (fold increase in extracellular AK activity)” value in the experiment on K. pneumoniae (planktonic K. pneumoniae, positive cutoff 3-fold increase) is given as 1.0. The “AK-based Prestwick library screening result, P. aeruginosa (fold increase in extracellular AK activity)” value in the experiment on P. aeruginosa (planktonic P. aeruginosa, positive cutoff 3-fold increase) was determined as 1.1.
As for `Nc1ccc(S(=O)(=O)Nc2ncccn2)cc1` [Sulfadiazine], the fold induction at 50 µM with E. cloacae (setting [15]) turned out to be 0.9; in the experiment on E. coli (setting [16]), 1; in experiment [1] (setting [17]), 1.2; in the experiment on E. faecium (setting [18]) it was 0.8; in experiment [2] (setting [19]), 0.7; in the experiment on K. pneumoniae (setting [20]), 0.7. In the experiment with P. aeruginosa (setting [21]), the fold induction at 50 µM turned out to be 0.8.
Regarding `C[C@](N)(Cc1ccc(O)c(O)c1)C(=O)O` [Methyldopa (L,−)], the “AK-based Prestwick Library Screening Results: E. cloacae (increase in extracellular AK activity)” value with E. cloacae (setting [10]) came to 0.5. Besides, the “AK-based Prestwick Library Screening Results: E. coli (increase in extracellular AK activity)” value in the experiment with E. coli (planktonic E. coli, 384-well) was 0.6. Moreover, in experiment [1] (setting [11]), the “AK-based Prestwick Library Screening Results: A. baumannii (increase in extracellular AK activity)” value was 0.5. Moreover, the “AK-based Prestwick Library Screening Results: E. faecium (increase in extracellular AK activity)” value in the experiment with E. faecium (setting [12]) is listed as 0.9. For the same molecule, the “AK-based Prestwick Library Screening Results: S. aureus (increase in extracellular AK activity)” value in experiment [2] (planktonic S. aureus, 384-well) is reported as 0.4. Moreover, the “AK-based Prestwick Library Screening Results: K. pneumoniae (increase in extracellular AK activity)” value in the experiment on K. pneumoniae (setting [13]) was 0.6. Further, the “AK-based Prestwick Library Screening Results: P. aeruginosa (increase in extracellular AK activity)” value in the experiment with P. aeruginosa (setting [14]) stood at 0.4.
Take `CC(C)(Oc1ccc(Cl)cc1)C(=O)O` [Clofibric acid]: the fold induction at 50 µM amounted to 1.5 in the experiment on E. cloacae (setting [3]); 1.2 in the experiment with E. coli (setting [4]); 1.3 in experiment [1] (setting [5]); 1.1 in the experiment with E. faecium (setting [6]); 1.4 in experiment [2] (setting [7]); 1.1 in the experiment with K. pneumoniae (setting [8]). In addition, the fold induction at 50 µM in the experiment with P. aeruginosa (setting [9]) amounted to 1.2.
Regarding `Nc1nc2c(ncn2COCCO)c(=O)[nH]1` [Acyclovir], the fold induction at 50 µM with E. cloacae (setting [15]) was 0.3; in the experiment with E. coli (setting [16]), 0.5; in experiment [1] (setting [17]), 0.4; in the experiment on E. faecium (setting [18]), 0.9; in experiment [2] (setting [19]), 0.5; in the experiment on K. pneumoniae (setting [20]) it was 0.5. Moreover, in the experiment on P. aeruginosa (setting [21]), the fold induction at 50 µM was 0.4.
On to `CCN(CC)Cc1cc(Nc2ccnc3cc(Cl)ccc23)ccc1O` [Amodiaquin dihydrochloride dihydrate], for which the fold induction at 50 µM in the experiment on E. cloacae (planktonic E. cloacae, 384-well, read-out: AK-based Prestwick Library Screening Results: E. cloacae (increase in extracellular AK activity)) came to 1.4; with E. coli (planktonic E. coli, 384-well, read-out: AK-based Prestwick Library Screening Results: E. coli (increase in extracellular AK activity)) it was 1.2; in experiment [1] (planktonic A. baumannii, 384-well, read-out: AK-based Prestwick Library Screening Results: A. baumannii (increase in extracellular AK activity)), 1.5; in the experiment on E. faecium (planktonic E. faecium, 384-well, read-out: AK-based Prestwick Library Screening Results: E. faecium (increase in extracellular AK activity)), 1.1; in experiment [2] (planktonic S. aureus, 384-well, read-out: AK-based Prestwick Library Screening Results: S. aureus (increase in extracellular AK activity)) it was 1.3; in the experiment with K. pneumoniae (planktonic K. pneumoniae, 384-well, read-out: AK-based Prestwick Library Screening Results: K. pneumoniae (increase in extracellular AK activity)), 0.9. Further, the fold induction at 50 µM in the experiment on P. aeruginosa (planktonic P. aeruginosa, 384-well, read-out: AK-based Prestwick Library Screening Results: P. aeruginosa (increase in extracellular AK activity)) came out at 1.2.
Consider `Fc1ccc([C@@H]2CCNC[C@H]2COc2ccc3c(c2)OCO3)cc1` [Paroxetine Hydrochloride], for which the fold induction at 50 µM in the experiment on E. cloacae (setting [3]) was determined as 1.6; in the experiment with E. coli (setting [4]), 1.4; in experiment [1] (setting [5]), 1.3; in the experiment with E. faecium (setting [6]), 0.9; in experiment [2] (setting [7]), 1.4; in the experiment on K. pneumoniae (setting [8]), 1.2. Moreover, in the experiment on P. aeruginosa (setting [9]), the fold induction at 50 µM was determined as 1.3.
